Source: ChEMBL document CHEMBL1909046, “DrugMatrix in vitro pharmacology data”

How the values were obtained:
[1] = DRUGMATRIX: beta-Lactamase enzyme inhibition (substrate: Nitrocefin); design: species or system Bacillus cereus; settings: Not Active = under 50% inhibition at 10 µM
[2] = target: Substance-P receptor (Homo sapiens, UniProt P25103); format: cell membranes, Membrane; settings: cho; further: in other assays of this panel Not Active means under 50% inhibition at 10 µM
[3] = target: Vascular endothelial growth factor receptor 1 (Homo sapiens, UniProt P17948); experiment: biochemical; format: cell-based, HUVEC; settings: huvec; further: in other assays of this panel Not Active means under 50% inhibition at 10 µM
Sequence of Vascular endothelial growth factor receptor 1 (P17948 whole entry): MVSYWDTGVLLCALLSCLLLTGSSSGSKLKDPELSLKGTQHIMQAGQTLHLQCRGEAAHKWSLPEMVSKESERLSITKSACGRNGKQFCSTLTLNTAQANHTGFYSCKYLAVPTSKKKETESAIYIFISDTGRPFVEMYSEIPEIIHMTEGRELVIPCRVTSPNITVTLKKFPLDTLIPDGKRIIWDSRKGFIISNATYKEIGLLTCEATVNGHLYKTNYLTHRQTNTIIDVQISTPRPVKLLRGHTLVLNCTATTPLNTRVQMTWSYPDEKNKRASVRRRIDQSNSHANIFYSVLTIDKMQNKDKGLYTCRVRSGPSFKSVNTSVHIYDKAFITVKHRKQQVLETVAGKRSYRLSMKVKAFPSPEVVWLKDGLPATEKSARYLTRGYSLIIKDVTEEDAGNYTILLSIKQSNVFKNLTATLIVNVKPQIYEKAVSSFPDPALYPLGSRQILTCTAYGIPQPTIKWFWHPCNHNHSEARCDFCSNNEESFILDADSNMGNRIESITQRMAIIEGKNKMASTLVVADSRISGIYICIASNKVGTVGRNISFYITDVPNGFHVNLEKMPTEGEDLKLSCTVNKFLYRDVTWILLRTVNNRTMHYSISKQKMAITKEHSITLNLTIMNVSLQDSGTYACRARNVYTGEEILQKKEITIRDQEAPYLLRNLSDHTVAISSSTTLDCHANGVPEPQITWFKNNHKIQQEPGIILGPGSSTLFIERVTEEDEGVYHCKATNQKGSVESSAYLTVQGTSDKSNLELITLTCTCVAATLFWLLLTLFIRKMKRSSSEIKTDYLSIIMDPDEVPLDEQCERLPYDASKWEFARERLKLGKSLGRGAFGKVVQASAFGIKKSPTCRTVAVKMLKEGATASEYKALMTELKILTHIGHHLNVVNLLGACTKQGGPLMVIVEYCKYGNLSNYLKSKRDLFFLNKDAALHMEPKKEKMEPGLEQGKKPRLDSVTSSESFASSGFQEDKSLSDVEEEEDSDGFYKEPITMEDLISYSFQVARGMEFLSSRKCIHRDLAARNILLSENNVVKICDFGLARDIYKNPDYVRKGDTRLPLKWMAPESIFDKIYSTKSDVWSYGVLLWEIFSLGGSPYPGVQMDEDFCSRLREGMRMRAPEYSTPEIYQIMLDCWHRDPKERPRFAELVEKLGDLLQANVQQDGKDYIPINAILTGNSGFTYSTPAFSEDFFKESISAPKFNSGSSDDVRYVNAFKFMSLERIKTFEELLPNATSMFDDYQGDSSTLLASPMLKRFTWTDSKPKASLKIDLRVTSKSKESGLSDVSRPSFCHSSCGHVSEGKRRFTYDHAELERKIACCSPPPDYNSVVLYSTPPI

[4] = target: Melanocortin receptor 5 (Homo sapiens, UniProt P33032); format: cell membranes, HEK293, Membrane; settings: hek293; further: in other assays of this panel Not Active means under 50% inhibition at 10 µM
Sequence of Melanocortin receptor 5 (P33032 whole entry): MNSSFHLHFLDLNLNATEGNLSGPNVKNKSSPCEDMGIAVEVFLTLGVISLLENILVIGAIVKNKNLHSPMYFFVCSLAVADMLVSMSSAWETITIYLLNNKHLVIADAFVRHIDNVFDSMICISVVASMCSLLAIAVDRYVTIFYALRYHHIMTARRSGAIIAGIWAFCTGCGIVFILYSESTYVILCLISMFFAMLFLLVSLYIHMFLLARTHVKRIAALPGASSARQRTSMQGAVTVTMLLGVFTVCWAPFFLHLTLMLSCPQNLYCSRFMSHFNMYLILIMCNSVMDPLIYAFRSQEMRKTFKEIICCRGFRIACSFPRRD

[5] = target: Mitogen-activated protein kinase 3 (Homo sapiens, UniProt P27361); experiment: DRUGMATRIX: Protein Serine/Threonine Kinase, ERK1 enzyme inhibition (substrate: Myelin Basic Protein); design: species or system Escherichia coli; settings: Not Active = under 50% inhibition at 10 µM
Sequence of Mitogen-activated protein kinase 3 (P27361 whole entry): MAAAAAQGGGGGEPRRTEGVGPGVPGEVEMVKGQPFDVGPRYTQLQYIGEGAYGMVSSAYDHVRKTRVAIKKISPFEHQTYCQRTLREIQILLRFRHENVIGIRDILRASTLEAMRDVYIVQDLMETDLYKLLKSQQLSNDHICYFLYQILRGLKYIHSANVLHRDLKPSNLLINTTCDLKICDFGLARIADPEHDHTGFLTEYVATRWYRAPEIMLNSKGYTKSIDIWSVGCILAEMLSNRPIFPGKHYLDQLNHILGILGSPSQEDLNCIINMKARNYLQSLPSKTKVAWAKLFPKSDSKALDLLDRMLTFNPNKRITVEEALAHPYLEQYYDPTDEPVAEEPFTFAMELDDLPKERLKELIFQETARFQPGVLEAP

[6] = target: T1, Receptor-type tyrosine-protein phosphatase C (Homo sapiens, UniProt P08575); design: species or system Escherichia coli;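 further: inhibition of CD45 enzyme activity measured using DiFMUP as substrate; in other assays of this panel Not Active means under 50% inhibition at 10 µM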
T1 sequence (P08575 whole entry): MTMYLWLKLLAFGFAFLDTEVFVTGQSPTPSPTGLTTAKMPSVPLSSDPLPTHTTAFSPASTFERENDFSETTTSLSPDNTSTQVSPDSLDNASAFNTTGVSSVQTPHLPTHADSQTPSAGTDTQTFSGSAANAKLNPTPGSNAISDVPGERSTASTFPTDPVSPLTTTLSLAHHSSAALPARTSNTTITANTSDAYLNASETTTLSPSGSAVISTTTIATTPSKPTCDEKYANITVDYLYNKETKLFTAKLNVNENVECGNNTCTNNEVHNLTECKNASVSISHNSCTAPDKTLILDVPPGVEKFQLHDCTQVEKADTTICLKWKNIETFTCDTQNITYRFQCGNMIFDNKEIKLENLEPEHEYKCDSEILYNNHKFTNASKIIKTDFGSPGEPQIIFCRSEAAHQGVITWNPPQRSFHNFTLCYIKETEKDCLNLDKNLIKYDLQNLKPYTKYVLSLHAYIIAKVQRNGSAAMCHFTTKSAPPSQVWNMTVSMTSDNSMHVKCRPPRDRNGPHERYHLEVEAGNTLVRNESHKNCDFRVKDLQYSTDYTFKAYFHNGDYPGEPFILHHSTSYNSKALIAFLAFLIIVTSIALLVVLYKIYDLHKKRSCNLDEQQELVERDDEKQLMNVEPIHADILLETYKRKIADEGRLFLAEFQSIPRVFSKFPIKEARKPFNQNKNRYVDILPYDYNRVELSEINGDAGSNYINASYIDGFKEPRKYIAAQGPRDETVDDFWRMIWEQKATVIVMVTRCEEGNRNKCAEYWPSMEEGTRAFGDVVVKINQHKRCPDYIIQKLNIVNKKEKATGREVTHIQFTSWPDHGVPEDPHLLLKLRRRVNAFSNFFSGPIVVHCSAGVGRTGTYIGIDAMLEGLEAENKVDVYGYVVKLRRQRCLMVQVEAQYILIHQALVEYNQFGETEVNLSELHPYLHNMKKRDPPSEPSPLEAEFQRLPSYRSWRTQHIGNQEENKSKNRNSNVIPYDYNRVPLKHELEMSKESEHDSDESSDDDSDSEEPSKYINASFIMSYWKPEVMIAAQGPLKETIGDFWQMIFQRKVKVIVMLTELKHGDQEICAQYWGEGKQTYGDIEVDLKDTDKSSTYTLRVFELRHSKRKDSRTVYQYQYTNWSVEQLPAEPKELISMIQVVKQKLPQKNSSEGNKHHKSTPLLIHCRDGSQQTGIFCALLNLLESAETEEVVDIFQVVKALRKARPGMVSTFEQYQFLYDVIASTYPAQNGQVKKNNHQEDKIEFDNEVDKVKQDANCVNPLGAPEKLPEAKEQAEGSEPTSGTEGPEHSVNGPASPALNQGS

[7] = target: T2, Cytochrome P450 2A6 (Homo sapiens, UniProt P11509); settings: bti-tn-5b1-4; further: in other assays of this panel Not Active means under 50% inhibition at 10 µM
T2 sequence (P11509 whole entry): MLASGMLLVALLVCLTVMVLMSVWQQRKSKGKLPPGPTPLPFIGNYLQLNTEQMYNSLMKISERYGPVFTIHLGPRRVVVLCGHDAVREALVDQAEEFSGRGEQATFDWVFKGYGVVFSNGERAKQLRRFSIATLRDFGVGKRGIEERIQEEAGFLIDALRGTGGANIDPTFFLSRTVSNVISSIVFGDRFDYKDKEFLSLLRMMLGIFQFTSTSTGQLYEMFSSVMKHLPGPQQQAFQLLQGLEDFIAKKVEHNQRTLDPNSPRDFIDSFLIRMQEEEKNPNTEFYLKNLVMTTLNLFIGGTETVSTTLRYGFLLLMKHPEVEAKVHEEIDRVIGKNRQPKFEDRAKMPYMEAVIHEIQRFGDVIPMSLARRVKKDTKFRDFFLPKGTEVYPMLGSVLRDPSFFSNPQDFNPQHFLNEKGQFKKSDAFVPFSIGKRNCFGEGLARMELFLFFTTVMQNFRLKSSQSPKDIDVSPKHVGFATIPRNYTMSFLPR

[8] = target: T3, Glucocorticoid receptor (Homo sapiens, UniProt P04150); settings: hela s3; further: in other assays of this panel Not Active means under 50% inhibition at 10 µM
T3 sequence (P04150 whole entry): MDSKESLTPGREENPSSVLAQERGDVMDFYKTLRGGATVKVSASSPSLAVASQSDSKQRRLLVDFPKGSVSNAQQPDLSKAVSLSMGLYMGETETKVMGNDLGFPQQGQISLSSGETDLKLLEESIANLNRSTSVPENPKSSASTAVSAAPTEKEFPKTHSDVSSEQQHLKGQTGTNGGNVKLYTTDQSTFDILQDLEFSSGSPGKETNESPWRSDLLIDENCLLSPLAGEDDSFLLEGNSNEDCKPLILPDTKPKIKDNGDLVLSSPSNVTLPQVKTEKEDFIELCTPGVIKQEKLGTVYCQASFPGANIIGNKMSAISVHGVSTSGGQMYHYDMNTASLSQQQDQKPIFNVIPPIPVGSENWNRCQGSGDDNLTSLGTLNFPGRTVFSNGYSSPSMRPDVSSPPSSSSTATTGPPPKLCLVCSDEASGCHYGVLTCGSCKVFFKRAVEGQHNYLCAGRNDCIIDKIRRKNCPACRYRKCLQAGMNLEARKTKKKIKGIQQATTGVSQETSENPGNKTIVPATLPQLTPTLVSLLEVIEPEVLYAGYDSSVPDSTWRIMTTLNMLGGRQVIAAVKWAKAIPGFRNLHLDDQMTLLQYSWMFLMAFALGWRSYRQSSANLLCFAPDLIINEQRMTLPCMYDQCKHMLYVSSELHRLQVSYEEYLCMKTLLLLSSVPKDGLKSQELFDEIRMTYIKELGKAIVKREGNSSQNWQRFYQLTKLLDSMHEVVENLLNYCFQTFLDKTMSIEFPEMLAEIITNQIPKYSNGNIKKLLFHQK

Sequence of Substance-P receptor (P25103 whole entry): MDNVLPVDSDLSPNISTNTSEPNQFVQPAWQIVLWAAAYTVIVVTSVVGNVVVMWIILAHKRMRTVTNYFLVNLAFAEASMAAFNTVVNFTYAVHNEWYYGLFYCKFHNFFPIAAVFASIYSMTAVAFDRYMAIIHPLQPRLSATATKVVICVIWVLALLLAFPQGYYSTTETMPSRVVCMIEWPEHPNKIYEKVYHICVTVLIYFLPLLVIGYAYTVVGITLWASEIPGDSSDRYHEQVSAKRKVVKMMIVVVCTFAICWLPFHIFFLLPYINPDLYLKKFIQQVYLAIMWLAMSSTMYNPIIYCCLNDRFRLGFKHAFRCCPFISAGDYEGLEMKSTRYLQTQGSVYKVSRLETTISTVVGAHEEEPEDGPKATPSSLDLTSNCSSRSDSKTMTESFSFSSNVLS

CCN[C@@H](C)Cc1cccc(C(F)(F)F)c1 [DEXFENFLURAMINE]
Not Active: IC50 [1] | Ki [1] | IC50 [2] | IC50 [3] | IC50 [4] | IC50 [5] | IC50 [6] | IC50 [7] | Ki [7] | IC50 [8]

CN1C(=O)CN=C(c2ccccc2)c2cc(Cl)ccc21 [DIAZEPAM]
Not Active: IC50 [1] | Ki [1] | IC50 [2] | IC50 [3] | IC50 [4] | IC50 [5] | IC50 [6] | IC50 [7] | Ki [7] | IC50 [8]

CN1C[C@H](C(=O)N[C@]2(C)O[C@@]3(O)[C@@H]4CCCN4C(=O)[C@H](Cc4ccccc4)N3C2=O)C[C@@H]2c3cccc4[nH]cc(c34)C[C@H]21 [DIHYDROERGOTAMINE]
Not Active: IC50 [1] | Ki [1] | IC50 [2] | IC50 [3] | IC50 [4] | IC50 [5] | IC50 [6] | IC50 [7] | Ki [7] | IC50 [8]

CC(CCc1ccc(O)cc1)NCCc1ccc(O)c(O)c1 (stereo not given) [DOBUTAMINE]
Not Active: IC50 [1] | Ki [1] | IC50 [2] | IC50 [3] | IC50 [4] | IC50 [5] | IC50 [6] | IC50 [7] | Ki [7] | IC50 [8]

CCC(=O)O[C@H]1[C@H](O[C@@H]2[C@@H](C)[C@H](O[C@H]3C[C@@](C)(OC)[C@@H](O)[C@H](C)O3)[C@@H](C)C(=O)O[C@H](CC)[C@@](C)(O)[C@H](O)[C@@H](C)C(=O)[C@H](C)C[C@@]2(C)O)O[C@H](C)C[C@@H]1N(C)C [ERYTHROMYCIN PROPIONATE]
Not Active: IC50 [1] | Ki [1] | IC50 [2] | IC50 [3] | IC50 [4] | IC50 [5] | IC50 [6] | IC50 [7] | Ki [7] | IC50 [8]

C=C(CC)C(=O)c1ccc(OCC(=O)O)c(Cl)c1Cl [ETHACRYNIC ACID]
Not Active: IC50 [1] | Ki [1] | IC50 [2] | IC50 [3] | IC50 [4] | IC50 [5] | IC50 [6] | IC50 [7] | Ki [7] | IC50 [8]

CC(=O)OCC(CCn1cnc2cnc(N)nc21)COC(C)=O [FAMCICLOVIR]
Not Active: IC50 [1] | Ki [1] | IC50 [2] | IC50 [3] | IC50 [4] | IC50 [5] | IC50 [6] | IC50 [7] | Ki [7] | IC50 [8]

O=C(O)Cc1ccc(-c2ccccc2)cc1 [FELBINAC]
Not Active: IC50 [1] | Ki [1] | IC50 [2] | IC50 [3] | IC50 [4] | IC50 [5] | IC50 [6] | IC50 [7] | Ki [7] | IC50 [8]

CCOC(=O)C1=C(C)NC(C)=C(C(=O)OC)C1c1cccc(Cl)c1Cl (stereo not given) [FELODIPINE]
Not Active: IC50 [1] | Ki [1] | IC50 [2] | IC50 [3] | IC50 [4] | IC50 [5] | IC50 [6] | IC50 [7] | Ki [7] | IC50 [8]

CC(C(=O)O)c1ccc(-c2ccccc2)c(F)c1 (stereo not given) [FLURBIPROFEN]
Not Active: IC50 [1] | Ki [1] | IC50 [2] | IC50 [3] | IC50 [4] | IC50 [5] | IC50 [6] | IC50 [7] | Ki [7] | IC50 [8]

C[C@H]([C@](O)(Cn1cncn1)c1ccc(F)cc1F)S(C)(=O)=O [GENACONAZOLE]
Not Active: IC50 [1] | Ki [1] | IC50 [2] | IC50 [3] | IC50 [4] | IC50 [5] | IC50 [6] | IC50 [7] | Ki [7] | IC50 [8]
